Patent US7893074B2, “2, 4-pyrimidinediamines useful in the treatment of neoplastic diseases, inflammatory and immune system disorders” (Novartis AG, priority 2003, dated 2011)

How the values were obtained:
[1] = target: Focal Adhesion Kinase (FAK) (Homo sapiens, UniProt Q05397); assay: FAK assay system (Focal Adhesion Kinase inhibition); assay type: biochemical; settings: read-out: FAK IC50
[2] = test system: Mouse mammary carcinoma 4T1 cells; assay: Anchorage-independent tumor cell growth assay; assay type: cell-based; settings: Mus musculus, 4T1
Method: Cells are cultured for 2 h and inhibitors are added at various concentrations in a final concentration of 0.1% DMSO. After 48 h, cell growth is assayed with the cell counting kit-8 (Wako Pure Chemical), which uses a water soluble tetrazolium salt WST8. Twenty μL of the reagent is added into each well and cells are further cultured for 2 h. The optical density is measured at 450 nm.

FAK = FAK (Mus musculus, UniProt P34152); assay: Phos IC50 (phosphorylation); assay type: cell-based
FAK, sequence (P34152 2-1052): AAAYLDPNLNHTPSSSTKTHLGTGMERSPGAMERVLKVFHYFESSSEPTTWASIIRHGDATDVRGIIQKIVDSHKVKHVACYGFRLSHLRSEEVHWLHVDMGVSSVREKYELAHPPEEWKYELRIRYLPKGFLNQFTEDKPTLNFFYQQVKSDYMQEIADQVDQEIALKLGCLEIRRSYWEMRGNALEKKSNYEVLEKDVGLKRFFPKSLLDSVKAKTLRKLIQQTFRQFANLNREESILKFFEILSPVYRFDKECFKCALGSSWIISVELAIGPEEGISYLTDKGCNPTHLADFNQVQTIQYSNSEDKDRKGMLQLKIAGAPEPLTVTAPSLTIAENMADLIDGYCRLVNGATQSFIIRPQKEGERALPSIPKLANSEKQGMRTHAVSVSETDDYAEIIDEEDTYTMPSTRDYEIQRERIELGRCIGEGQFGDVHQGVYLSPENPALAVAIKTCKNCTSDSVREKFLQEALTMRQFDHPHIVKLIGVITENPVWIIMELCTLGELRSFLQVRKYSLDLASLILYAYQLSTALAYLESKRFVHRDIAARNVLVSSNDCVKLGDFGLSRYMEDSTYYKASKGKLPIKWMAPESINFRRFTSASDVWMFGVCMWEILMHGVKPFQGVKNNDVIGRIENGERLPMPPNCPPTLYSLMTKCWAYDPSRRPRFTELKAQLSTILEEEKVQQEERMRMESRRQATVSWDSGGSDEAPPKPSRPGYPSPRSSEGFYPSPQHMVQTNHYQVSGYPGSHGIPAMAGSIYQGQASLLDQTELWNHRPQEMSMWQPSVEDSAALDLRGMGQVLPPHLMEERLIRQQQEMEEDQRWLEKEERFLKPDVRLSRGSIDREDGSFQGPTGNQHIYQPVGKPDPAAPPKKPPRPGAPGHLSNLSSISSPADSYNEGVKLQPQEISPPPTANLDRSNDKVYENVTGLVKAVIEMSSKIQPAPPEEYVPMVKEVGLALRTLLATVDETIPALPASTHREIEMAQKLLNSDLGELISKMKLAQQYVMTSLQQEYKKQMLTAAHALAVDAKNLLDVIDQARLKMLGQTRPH

Focal Adhesion Kinase (FAK), sequence (Q05397 384-706): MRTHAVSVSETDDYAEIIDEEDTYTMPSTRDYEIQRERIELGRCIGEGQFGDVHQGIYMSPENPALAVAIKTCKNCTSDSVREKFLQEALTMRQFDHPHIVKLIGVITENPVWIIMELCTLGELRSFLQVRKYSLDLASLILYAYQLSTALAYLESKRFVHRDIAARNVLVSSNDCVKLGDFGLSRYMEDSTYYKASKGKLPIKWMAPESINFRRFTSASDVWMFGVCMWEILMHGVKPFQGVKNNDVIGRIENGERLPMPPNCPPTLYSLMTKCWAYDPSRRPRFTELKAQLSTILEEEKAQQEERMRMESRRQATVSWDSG

IC50 [1] [nM] | IC50 [2] [nM] | IC50 (FAK) [nM] | Structure (SMILES)
17 | 560 | 600 | Cc1cc(N2CCOCC2)ccc1Nc1ncc(Cl)c(Nc2ccccc2S(=O)(=O)C(C)C)n1 [Example 28-6]
13 | 1220 | > 10000 | COc1cc(N2CCOCC2)ccc1Nc1ncc(Cl)c(Nc2ccccc2S(=O)(=O)CCC(C)C)n1 [Example 34-4]
7.4 | 1060 | 60 | CC(C)S(=O)(=O)c1ccccc1Nc1nc(Nc2cccc3c2OCC3)ncc1Cl [Example 28-31]
43 | > 10000 | > 10000 | COc1ccc(F)cc1Nc1ncc(Cl)c(Nc2ccccc2S(=O)(=O)NCC(C)C)n1 [Example 22-1]
< 1 | 100 | 60 | COc1cc(OCCN2CCN(C)CC2)ccc1Nc1ncc(Cl)c(Nc2ccccc2S(=O)(=O)NC(C)C)n1 [Example 19-30]
2 | 10 | 300 | CNS(=O)(=O)c1ccccc1Nc1nc(Nc2cccc3c2ccn3CCCN2CCN(C)CC2)ncc1Cl [Example 20-9]
2.1 | 280 | 200 | CCC(CC)NS(=O)(=O)c1ccccc1Nc1nc(Nc2ccc(OCCN3CCN(C)CC3)cc2OC)ncc1Cl [Example 23-9]
22 | 890 | 200 | COc1cc(N2CCOCC2)ccc1Nc1ncc(Cl)c(Nc2ccccc2S(=O)(=O)C2CC2)n1 [Example 30-1]
38 | 2000 | > 10000 | COc1c(Nc2ncc(Cl)c(Nc3ccccc3S(=O)(=O)NC(C)C)n2)ccc(N2CCOCC2)c1F [Example 19-11]
2.3 | 1100 | 700 | COc1cc(N2CCC[C@H]2CN2CCCC2)ccc1Nc1ncc(Cl)c(Nc2ccccc2S(=O)(=O)NC(C)C)n1 [Example 19-16]
3.1 | 360 | 500 | COc1cc(N2CCC(N3CCCC3)CC2)ccc1Nc1ncc(Cl)c(Nc2ccccc2S(=O)(=O)NC(C)C)n1 [Example 19-15]
5.5 | 570 | 2000 | CCS(=O)(=O)c1ccccc1Nc1nc(Nc2ccc(CN3CCN(C)CC3)cc2OC)ncc1Cl [Example 27-7]
8 | 190 | > 10000 | CNS(=O)(=O)c1ccccc1Nc1nc(Nc2cc(OCCN3CCN(C)CC3)ccc2OC)ncc1Cl [Example 20-22]
3.1 | 360 | 500 | COc1cc(N2CCC(N3CCCC3)CC2)ccc1Nc1ncc(Cl)c(Nc2ccccc2S(=O)(=O)C(C)C)n1 [Example 28-9]
1.3 | 300 | 100 | COc1cc(N2CCC(N(C)C)C2)ccc1Nc1ncc(Cl)c(Nc2ccccc2S(=O)(=O)C(C)C)n1 (stereo not drawn) [Example 28-22]
11 | 1170 | 80 | COc1cc(N2CCOCC2)ccc1Nc1ncc(Cl)c(Nc2ccccc2S(=O)(=O)C2CCCCC2)n1 [Example 34-2]
1 | 170 | > 10000 | COc1cc(OCC2CCCCN2C)ccc1Nc1ncc(Cl)c(Nc2ccccc2S(=O)(=O)NC(C)C)n1 (stereo not drawn) [Example 19-17]
6.3 | 560 | > 10000 | CCS(=O)(=O)c1ccccc1Nc1nc(Nc2ccc(-n3cncn3)cc2OC)ncc1Cl [Example 27-3]
8.7 | 1900 | > 10000 | CCCS(=O)(=O)c1cc(N2CCN(C)CC2)ccc1Nc1nc(Nc2ccc(F)cc2OC)ncc1Cl [Example 34-8]
11 | 950 | 500 | CCCS(=O)(=O)c1ccccc1Nc1nc(Nc2ccc(N3CC(C)N(C(C)=O)C(C)C3)cc2OC)ncc1Cl (stereo not drawn) [Example 26-7]
26 | 100 | 410 | CNC(=O)c1cc(F)ccc1Nc1nc(Nc2cccc3c2ccn3C)ncc1Cl [Example 11-3]
5 | 700 | 1000 | COc1cc(F)ccc1Nc1ncc(Cl)c(Nc2ccccc2S(=O)(=O)NC(C)C)n1 [Example 19-6]
26 | 400 | 2000 | CNS(=O)(=O)c1ccccc1Nc1nc(Nc2cc(N3CCOCC3)ccc2OC)ncc1Cl [Example 20-11]
30 | 3000 | 490 | CNS(=O)(=O)c1ccccc1Nc1nc(Nc2cc(F)ccc2OC)ncc1Cl [Example 20-23]

More lines, now with the values behind:

Structure (SMILES) | IC50 [1] [nM] | IC50 [2] [nM] | IC50 (FAK) [nM]
CCOc1ccc(-c2ccccc2)cc1Nc1ncc(Br)c(Nc2ccccc2S(=O)(=O)NC)n1 [Example 3-29] | 89 | > 10000 | 600
CNC(=O)c1c(C)cccc1Nc1nc(Nc2ccc(N3CCOCC3)cc2OC)ncc1Cl [Example 10-3] | 23 | 2400 | 900
CNS(=O)(=O)c1ccccc1Nc1nc(Nc2cccc3c2OC(F)(F)O3)ncc1Br [Example 3-1] | 44 | > 10000 | 340
CNS(=O)(=O)c1ccccc1Nc1nc(Nc2ccc(F)cc2Cl)ncc1Br [Example 3-37] | 39 | 2600 | 1100
CNS(=O)(=O)c1ccccc1Nc1nc(Nc2cc(OC3CCN(C(C)=O)CC3)ccc2OC)ncc1Br [Example 3-75] | 72 | 1300 | 500
CNS(=O)(=O)c1ccccc1Nc1nc(Nc2cc(-c3ccccn3)ccc2OC)ncc1Br [Example 3-67] | 6 | 390 | 380
CCOc1ccc(-c2ccc(OC)cc2)cc1Nc1ncc(Br)c(Nc2ccccc2S(=O)(=O)NC)n1 [Example 3-30] | 69 | 3000 | 600
CNS(=O)(=O)c1ccccc1Nc1nc(Nc2ccccc2C)ncc1Br [Example 3-7] | 16 | 2000 | 450
CNS(=O)(=O)c1ccccc1Nc1nc(Nc2cc(OC)ccc2C)ncc1Br [Example 3-3] | 9.1 | 800 | 140
CCOCCOC1CCN(c2ccc(Nc3ncc(Cl)c(Nc4ccccc4C(=O)NC)n3)c(OC)c2)CC1 [Example 7-9] | 8.2 | 850 | 1000
CNS(=O)(=O)c1ccccc1Nc1nc(Nc2cc(OC)ccc2OC(C)C)ncc1Br [Example 3-62] | 63 | > 10000 | > 10000
CNS(=O)(=O)c1ccccc1Nc1nc(Nc2cc(-c3ccccc3)ccc2OC)ncc1Br [Example 3-9] | 48 | 700 | 500
NS(=O)(=O)c1ccccc1Nc1nc(Nc2cccc3c2OC(F)(F)O3)ncc1Br [Compound 6, 2-[5-Bromo-2-(2,3-[difluoromethylenedioxy]phenylamino)-pyrimidin-4-ylamino]-benzenesulfonamide] | 110 | 5000 | 350
CNC(=O)c1ccccc1Nc1nc(Nc2ccc(OCC3CCN(C)CC3)cc2OC)ncc1Cl [Example 7-20] | 2.5 | 110 | > 10000
CNC(=O)c1ccccc1Nc1nc(Nc2ccc(OCCN3CCN(C)CC3)cc2OC)ncc1Cl [Example 7-21] | 3.3 | 460 | > 10000
